Consider ten compounds from US9908877B2, “Imidazo[1,5-a]pyridinium ion fluorophores, and methods of making and using the same” (Indiana University Research and Technology Corporation, priority 2013, dated 2018).

Each structure is given as a SMILES string.

What all share (assay type): physicochemical
Data set [1] can be described thus: Ultraviolet-visible light spectrum (maximum absorbance wavelength). The procedure:
Method for Obtaining an Ultraviolet-Visible Light Spectrum
Ultraviolet-visible (UV-Vis) Light spectra are obtained and recorded on an Agilent 8453 spectrophotometer using ChemStation software (Agilent Technologies, Inc., Santa Clara, Calif.).
(§1) The compounds were analyzed at 298° K according to the Method for Obtaining Ultraviolet-Visible Light Spectrum (30 μM acetonitrile) to obtain the maximum absorbance wavelength (λabs,max), Method for Obtaining Fluorescence Emission Spectrum (30 μM acetonitrile) to obtain the maximum emission wavelength (λem,max) and Method for Determining Quantum Yield (ΦF) (30 μM acetonitrile) at the concentration, in the solvent, and with the counter ion indicated in Table 1. The compounds included hydrogen at each R group that is not otherwise specified.
(§2) Compounds 6, 7, 9, 11-14 and 21 were analyzed according to: the Method for Obtaining Ultraviolet-Visible Light Spectrum to obtain the maximum absorbance wavelength (λabs,max), the Method for Obtaining Fluorescence Emission Spectrum to obtain the maximum emission wavelength (λem,max), and the Method for Determining Quantum Yield (ΦF) in the solvent and with the counter ion indicated in Table 3.

The nature of data set [2]: Fluorescence emission spectrum (maximum emission wavelength). Here is the method:
Method for Obtaining a Fluorescence Emission Spectrum
Fluorescence emission spectra are obtained and recorded on a QM-4-CW Spectrofluorometer using FeliX32 software (Photon Technology International, Inc., Birmingham, N.J.).
as §1, §2

Data set [3] is described as follows: Fluorescence quantum yield, integrating sphere. Conditions: for ΦF (quantum yield): 30 μM acetonitrile, 298 K, Table 1. The procedure:
Method for Determining Quantum Yield
Quantum yield is determined using an integrating sphere attached to a QM-4-CW Spectrofluorometer using FeliX32 software (Photon Technology International).
as §1, §2

Data set [4] can be described thus: Fluorescence response to trifluoroacetic acid / DBU in acetonitrile. Conditions: for emission intensity at 400 nm: 30 μM in acetonitrile + 50 μL trifluoroacetic acid; for emission intensity at 600 nm / emission wavelength: 30 μM in neat acetonitrile; for emission wavelength λem,max: acetonitrile + 50 μL trifluoroacetic acid. The procedure:
A 30 μM solution of Compound 6 in acetonitrile was prepared by adding 99 μL of a stock solution of 3.04 mM Compound 6 in methanol to 10 mL of acetonitrile. An initial fluorescence emission spectrum of the solution was obtained and is illustrated by curve (i) in FIG. 1A.
A series of approximately 13.8 μL aliquots of trifluoroacetic acid (TFA) were then added to the 30 μM solution of Compound 6 until a total concentration of 60.0 mM of TFA was present in the solution. (The total amount of TFA present in the solution corresponded to 2000 equivalents of acid per equivalent of Compound 6.) The fluorescence emission spectrum of the resulting solution was obtained and is illustrated by curve (ii) in FIG. 1A.
A base, i.e., 1,8-diazabicyclo[5.4.0]undec-7-ene (DBU), was then added to the solution to neutralize the acid until a concentration of 90 mM DBU was obtained. The fluorescence emission spectrum of the resulting solution was obtained and is illustrated by curve (iii) in FIG. 1A. The fluorescence emission intensity at λem,max=565 nm increased as the amount of base present in the system increased and the fluorescence emission intensity at λem,max=405 nm decreased as the amount of base present in the system increased, which reflected Compound 6's ratiometric response to the changing base concentration in acetonitrile.
A 30 μM solution of Compound 7 in acetonitrile was prepared by adding 84 μL of a stock solution of 3.58 mM Compound 7 in methanol to 10 mL of acetonitrile. The emission spectrum of the solution was then obtained and is illustrated by curve (i) in FIG. 1B.
A series of approximately 13.8 μL aliquots of TFA were then added to the 30 μM solution of Compound 7 until a total concentration of 60.0 mM TFA was present in the solution (which corresponded to 2000 equivalents of acid per equivalent of Compound 7). The fluorescence emission spectrum of the solution was obtained and is illustrated by curve (ii) in FIG. 1B.
After the 60 mM TFA concentration was achieved, DBU was gradually added to the solution until a total concentration of 90 mM DBU was present in the solution. The fluorescence spectrum of the solution was obtained and is illustrated by curve (iii) in FIG. 1B.
An aliquot of 50 μL of trifluoroacetic acid was then added to the system, and the fluorescence emission spectrum was obtained and is illustrated by the curved line with a peak at 360 nm in FIG. 6A.
Compound 10 was placed in neat acetonitrile and its emission spectrum was monitored as trifluoroacetic acid was added to the acetonitrile in incremental amounts to achieve a solution that included an acid concentration ranging from 0 to 0.2 M. After each acid addition the sample was excited with radiation of a wavelength 340 nm, and its fluorescence emission spectrum was monitored. The results are illustrated in FIG. 7A.
The solution of Compound 10 in acetonitrile was titrated with trifluoroacetic acid (TFA). […] The first stage, which occurred with the addition of the initial aliquots of TFA, was a slight increase intensity at 580 nm, as illustrated in FIG. 7A. As more TFA was added to the system, a second transition occurred in which the emission at 580 nm began to decrease and as the emission at 400 nm began to increase, as illustrated in FIG. 7B. A plot of the emission intensity at 580 nm versus pH and at 400 nm versus pH is illustrated in FIG. 7C.
Compounds 10, 11, and 12 were then each individually added, at a concentration of 30 μM, to acetonitrile and the emission spectrum of each was monitored. The compounds emitted at 600 nm with an intensity of about 7.57×10^5 arbitrary units (a.u.) in neat acetonitrile. […] FIG. 8B illustrates the emission properties of Compound 12.

Data set [5] can be described thus: Fluorescence response to pH in buffered water. Conditions: for fluorescence emission in water at pH 7.5: water pH 7.5. Here is the method: Stock solutions of each compound (having a concentration of from 1-5 mM) were prepared by dissolving the corresponding salts of the compounds in methanol or 1V, N-dimethylformamide, and then diluting the same with acetonitrile or buffered water having a pH of from 2.5 to 7.5 derived from 0.2 M […] and 0.1 M citric acid, to achieve a sample solution having a compound concentration of 30.0 μM.
The emission spectrum for each sample was obtained. The results are illustrated by the plot in FIG. 2A.
The emission spectrum for each sample was obtained. […] The results are illustrated in the plot of FIG. 2B.
The fluorescence emission spectrum of Compound 8 in water having a pH of 2.5 was also obtained and is illustrated by the curved line with a peak at 360 nm in FIG. 5B.
Compounds 10, 11, and 12 were each individually added, at a concentration of 30 μM, to water having a pH=7.5 and the emission spectra of each were obtained. […] As the pH was decreased from 7.5 to 2.5 in 0.5 pH unit increments, fluorescence emission at 600 nm remained relatively nonexistent and the intensity of the fluorescence emission at 400 nm increased in correlation to the decrease in pH. FIG. 8A illustrates the emission properties of Compound 12.

Setting [6] is: 30 μM acetonitrile, 298 K, Table 1.

On to `Cc1ccc(-n2cc(-c3cccc4cn(-c5ccc(N(C)C)cc5)c[n+]34)nn2)cc1.[Cl-]` [Compound 11, 2-(4-(dimethylamino)phenyl)-5-(1-(p-tolyl)-1H-1,2,3-triazol-4-yl)-2H-imidazo[1,5-a]pyridin-4-ium chloride], for which the “λabs, max Abs” value in data set [1] (H2O pH = 2.5, 30 μM) was 340 nm; in data set [1] (H2O pH = 7.5, 30 μM) it was 340 nm; in data set [1] (MeCN + 50 μL TFA, 30 μM), 340 nm; in data set [1] (MeCN, 30 μM), 400 nm. Besides, the “λem, max Em” value in data set [2] (H2O pH = 2.5, 30 μM) came to 400 nm; in data set [2] (MeCN + 50 μL TFA, 30 μM) it was 405 nm; in data set [2] (MeCN, 30 μM), 605 nm. Also, the “[…]F (quantum yield)” value turned out to be 29% in data set [3] (H2O pH = 2.5, 30 μM); 0% in data set [3] (H2O pH = 7.5, 30 μM); 55% in data set [3] (MeCN + 50 μL TFA, 30 μM); 35% in data set [3] (MeCN, 30 μM). Further, in data set [4], the “emission intensity at 400 nm” value is given as 1.34×10^6 a.u. In addition, the “emission intensity at 600 nm” value in data set [4] is “about 7.57×10^5 arbitrary units (a.u.)”. In data set [4], this compound gave an emission wavelength of 600 nm. In addition, the “emission wavelength λem,max” value in data set [4] worked out at 400 nm. Moreover, the “fluorescence emission in water at pH 7.5” value in data set [5] is reported as “essentially no fluorescence emission”.
Turning to `CCCCn1c[n+]2ccccc2c1-c1ccc(N(CC)CC)cc1` [Compound 5, 2-butyl-1-(4-(diethylamino)phenyl)-2H-imidazo[1,5-a]pyridin-4-ium tetraphenylborate], in data set [1] (setting [6]), the “λabs, max Abs” value is 355 nm. Also, the “λem, max Em” value in data set [2] (setting [6]) was determined as 550 nm. In addition, the “ΦF (quantum yield)” value in data set [3] turned out to be 38%.
Turning to `CCCCn1cc2cccc(-c3ccc(N(C)C)cc3)[n+]2c1` [Compound 9, 2-butyl-5-(4-(dimethylamino)phenyl)-2H-imidazo[1,5-a]pyridin-4-ium tetraphenylborate], the “λabs, max Abs” value in data set [1] (MeCN, 30 μM) is on record as 350 nm. In addition, in data set [2] (MeCN, 30 μM), the “λem, max Em” value came to 490 nm. In data set [3] (MeCN, 30 μM), the “[…]F (quantum yield)” value was found to be 75%.
On to `CCN(CC)c1ccc(-n2cc(-c3cccc4cn(-c5ccc(C)cc5)c[n+]34)nn2)cc1.[Cl-]` [Compound 14, 5-(1-(4-(diethylamino)phenyl)-1H-1,2,3-triazol-4-yl)-2-(p-tolyl)-2H-imidazo[1,5-a]pyridin-4-ium chloride], for which the “λabs, max Abs” value is 340 nm in data set [1] (H2O pH = 2.2, 30 μM); 340 nm in data set [1] (H2O pH = 7.5, 30 μM); 340 nm in data set [1] (MeCN + excess TFA, 30 μM); 340 nm in data set [1] (MeCN, 30 μM). Also, the “λem, max Em” value was determined as 405 nm in data set [2] (H2O pH = 2.2, 30 μM) and 410 nm in data set [2] (MeCN + excess TFA, 30 μM). Besides, the “[…]F (quantum yield)” value in data set [3] (H2O pH = 2.2, 30 μM) is listed as 53%; in data set [3] (H2O pH = 7.5, 30 μM) it was 0%; in data set [3] (MeCN + excess TFA, 30 μM), 64%; in data set [3] (MeCN, 30 μM), 0%.
Consider `CCCCn1c[n+]2ccccc2c1-c1ccc(OC)cc1.[Cl-]` [Compound 4, 2-butyl-1-(4-methoxyphenyl)-2H-imidazo[1,5-a]pyridin-4-ium chloride], for which the “λabs, max Abs” value in data set [1] (setting [6]) stood at 320 nm. Also, in data set [2] (setting [6]), the “λem, max Em” value came out at 430 nm. The “ΦF (quantum yield)” value in data set [3] worked out at 64%.
For the compound `COc1ccc(-n2cc3cccc(-c4ccc(N(C)C)cc4)[n+]3c2)cc1` [Compound 21, 5-(4-(dimethylamino)phenyl)-2-(4-methoxyphenyl)-2H-imidazo[1,5-a]pyridin-4-ium tetraphenylborate], in data set [1] (MeCN, 30 μM), the “λabs, max Abs” value was 360 nm. Also, the “λem, max Em” value in data set [2] (MeCN, 30 μM) is 540 nm. Further, in data set [3] (MeCN, 30 μM), the “[…]F (quantum yield)” value is on record as 10%.
`CCN(CC)c1ccc(-n2cc(-c3cccc4cn(-c5ccc(N(C)C)cc5)c[n+]34)nn2)cc1.[Cl-]` [Compound 10, 5-(1-(4-(diethylamino)phenyl)-1H-1,2,3-triazol-4-yl)-2-(4-(dimethylamino)phenyl)-2H-imidazo[1,5-a]pyridin-4-ium chloride]: in data set [4], the “emission intensity at 400 nm” value is reported as 1.34×10^6 a.u, the “emission intensity at 600 nm” value was “about 7.57×10^5 arbitrary units (a.u.)”, the emission wavelength is 600 nm and the “emission wavelength λem,max” value was determined as 400 nm. The “emission response to stepwise addition of TFA” value in data set [4] (acetonitrile, TFA 0 to 0.2 M, excited at 340 nm, emission at 580 nm and 400 nm) is “two stage transitions”. Also, in data set [5], the “fluorescence emission in water at pH 7.5” value was “essentially no fluorescence emission”.
Consider `CC(C)c1cc(N(C)C)cc(C(C)C)c1-n1cc2cccc[n+]2c1` [Compound 8, 2-(4-(dimethylamino)-2,6-diisopropylphenyl)-2H-imidazo[1,5-a]pyridin-4-ium tetraphenylborate], for which the “emission wavelength λem,max” value in data set [4] amounted to 360 nm. In addition, the “fluorescence emission in neat acetonitrile” value in data set [4] (acetonitrile without acid) is on record as “fluorescence quenching”. In addition, the “fluorescence emission in water at pH 7.5” value in data set [5] is “fluorescence quenching”. Further, the “fluorescence λem” value in data set [5] (water, pH 2.5) is 360 nm.
As for `CCCCn1c[n+]2ccccc2c1-c1ccc(C)cc1` [Compound 3, 2-butyl-1-(p-tolyl)-2H-imidazo[1,5-a]pyridin-4-ium tertraphenylborate], the “λabs, max Abs” value in data set [1] (setting [6]) is 320 nm. Further, in data set [2] (setting [6]), the “λem, max Em” value stood at 415 nm. In data set [3], the “ΦF (quantum yield)” value is given as 46%.
For `Cc1ccc(-n2cc3cccc(-c4cn(-c5ccc(N(C)C)cc5)nn4)[n+]3c2)cc1.[Cl-]` [Compound 13, 5-(1-(4-(dimethylamino)phenyl)-1H-1,2,3-triazol-4-yl)-2-(p-tolyl)-2H-imidazo[1,5-a]pyridin-4-ium chloride], the “λabs, max Abs” value in data set [1] (H2O pH = 2.5, 30 μM) is on record as 340 nm; in data set [1] (H2O pH = 7.5, 30 μM), 340 nm; in data set [1] (MeCN + 50 μL TFA, 30 μM) it was 340 nm; in data set [1] (MeCN, 30 μM), 340 nm. Also, the “λem, max Em” value in data set [2] (H2O pH = 2.5, 30 μM) is listed as 405 nm; in data set [2] (MeCN + 50 μL TFA, 30 μM) it was 410 nm. In addition, the “[…]F (quantum yield)” value in data set [3] (H2O pH = 2.5, 30 μM) came to 59%; in data set [3] (H2O pH = 7.5, 30 μM) it was 0%; in data set [3] (MeCN + 50 μL TFA, 30 μM) it was 67%; in data set [3] (MeCN, 30 μM) it was 0%.
